Experimental data from ChEMBL document CHEMBL1201862, “PubChem BioAssay data set” (2004).
The source made the active and inactive calls.

What was measured:
[1] = biological target: T1, Probable nicotinate-nucleotide adenylyltransferase (Staphylococcus aureus (strain N315), UniProt P65502); type: functional, Staphylococcus aureus subsp. aureus N315;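 on IC50 Mean: confirmatory dose-response retesting of NadD inhibitor hits first found in an ultra-high-throughput screen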
[2] = biological target: T1, Probable nicotinate-nucleotide adenylyltransferase; type: functional, Staphylococcus aureus subsp. aureus N315; conditions: read-out: IC50_Mean
[3] = biological target: T2, Zinc finger protein mex-5 (Caenorhabditis elegans, UniProt Q9XUB2); test: potency of MEX-5 RNA-binding blockers – biochemical, C. elegans, fluorescence polarization, dose response (AID 1960)
T2 sequence (Q9XUB2 whole entry): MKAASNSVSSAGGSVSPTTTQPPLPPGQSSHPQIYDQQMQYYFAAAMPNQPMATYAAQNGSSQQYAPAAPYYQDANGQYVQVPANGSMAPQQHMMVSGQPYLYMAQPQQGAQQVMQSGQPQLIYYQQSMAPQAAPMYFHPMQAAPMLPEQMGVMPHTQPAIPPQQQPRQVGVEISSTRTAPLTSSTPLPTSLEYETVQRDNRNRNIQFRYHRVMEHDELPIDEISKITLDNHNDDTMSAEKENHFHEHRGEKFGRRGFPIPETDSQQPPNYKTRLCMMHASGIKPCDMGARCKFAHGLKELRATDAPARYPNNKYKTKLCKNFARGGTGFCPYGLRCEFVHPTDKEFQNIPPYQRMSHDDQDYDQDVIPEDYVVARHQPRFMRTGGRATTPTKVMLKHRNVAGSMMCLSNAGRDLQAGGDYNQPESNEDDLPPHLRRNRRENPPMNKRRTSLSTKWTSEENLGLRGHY

[4] = biological target: T3, RNA-binding protein pos-1 (Caenorhabditis elegans, UniProt G5EF15); test: disruptors of C. elegans POS-1 RNA interaction – biochemical, fluorescence polarization, dose response (AID 1964);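 further: purified POS-1 fused to maltose binding protein made in E. coli; potency of compounds blocking POS-1 binding to fluorescent RNA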
T3 sequence (G5EF15 whole entry): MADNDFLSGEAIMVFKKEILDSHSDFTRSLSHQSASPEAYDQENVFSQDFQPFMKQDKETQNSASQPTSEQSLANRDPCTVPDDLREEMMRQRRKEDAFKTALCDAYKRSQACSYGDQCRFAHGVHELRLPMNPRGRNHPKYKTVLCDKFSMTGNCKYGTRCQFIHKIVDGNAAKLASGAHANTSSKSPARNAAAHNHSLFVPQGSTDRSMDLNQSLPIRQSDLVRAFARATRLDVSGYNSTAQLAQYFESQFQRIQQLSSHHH

[5] = biological target: 26S proteasome non-ATPase regulatory subunit 14 (Homo sapiens, UniProt O00487); test: inhibition of proteasome subunit RPN11 – biochemical, fluorescence polarization, uHTS hits, confirmation (AID 602368); type: functional
[6] = biological target: 72 kDa type IV collagenase (Homo sapiens, UniProt P08253); test: Dose Response validation of uHTS RPN11 inhibitor hits using a MMP-2 Fluorescence assay.; type: functional
Prothrombin = Prothrombin (Bos taurus, UniProt P00735); test: thrombin protease inhibitors – biochemical, fluorescence polarization, uHTS hits, dose response (AID 602369); type: functional
Protein skinhead-1 = biological target: T4, Protein skinhead-1 (Caenorhabditis elegans, UniProt P34707); type: functional
T4 sequence (P34707 whole entry): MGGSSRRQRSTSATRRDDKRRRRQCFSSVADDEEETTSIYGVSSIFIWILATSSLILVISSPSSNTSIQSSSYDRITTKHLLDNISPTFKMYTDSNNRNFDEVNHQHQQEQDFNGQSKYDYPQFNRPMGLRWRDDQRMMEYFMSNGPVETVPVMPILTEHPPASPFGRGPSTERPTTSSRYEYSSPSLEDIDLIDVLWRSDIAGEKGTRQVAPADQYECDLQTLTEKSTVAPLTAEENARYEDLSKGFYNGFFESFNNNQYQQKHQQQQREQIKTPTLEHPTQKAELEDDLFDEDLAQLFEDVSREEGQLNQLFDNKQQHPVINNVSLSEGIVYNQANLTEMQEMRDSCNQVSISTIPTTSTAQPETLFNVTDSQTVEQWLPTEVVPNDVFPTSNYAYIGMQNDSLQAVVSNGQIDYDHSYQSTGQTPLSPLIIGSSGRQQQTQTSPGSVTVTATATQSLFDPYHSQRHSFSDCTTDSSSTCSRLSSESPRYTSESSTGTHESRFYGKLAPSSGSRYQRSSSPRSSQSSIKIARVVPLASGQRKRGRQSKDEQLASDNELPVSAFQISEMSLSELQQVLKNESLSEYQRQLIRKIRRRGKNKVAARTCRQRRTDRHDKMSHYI

Kallikrein-7 = Kallikrein-7 (Homo sapiens, UniProt P49862); test: Fluorescence Intensity-based biochemical primary high throughput dose response assay to identify activators of kallikrein-7 (K7) zymogen.
[7] = biological target: T5, COUP transcription factor 2 (Homo sapiens, UniProt P24468); test: Luminescence-based cell-based high throughput dose response assay to identify inhibitors of COUP-TFII (NR2F2).; type: functional;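 further: HEK293 cells transiently cotransfected with COUP-TFII expression vector and reporter; luciferase reporter luminescence driven by COUP-TFII from the pX2-168 reporter plasmid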
T5 sequence (P24468 whole entry): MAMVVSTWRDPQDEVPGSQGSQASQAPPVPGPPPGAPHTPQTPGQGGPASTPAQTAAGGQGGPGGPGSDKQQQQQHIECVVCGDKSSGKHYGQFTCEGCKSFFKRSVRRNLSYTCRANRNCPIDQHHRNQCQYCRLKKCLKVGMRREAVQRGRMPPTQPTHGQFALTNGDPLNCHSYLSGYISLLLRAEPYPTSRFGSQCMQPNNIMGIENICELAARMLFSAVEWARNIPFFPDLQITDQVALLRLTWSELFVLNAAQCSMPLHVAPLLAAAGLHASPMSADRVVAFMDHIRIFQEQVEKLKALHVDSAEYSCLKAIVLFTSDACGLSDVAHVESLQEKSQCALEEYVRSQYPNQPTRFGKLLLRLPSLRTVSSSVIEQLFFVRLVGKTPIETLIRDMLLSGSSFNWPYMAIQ

INS1 = test: INS-1E survival protection against cytokine death – cell-based, luminescence, retest, dose response (AID 449756); type: functional; conditions: Rattus norvegicus;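 further: cell death triggered by IL-1 beta plus TNF-alpha plus IFN-gamma mixture; protective hits raise ATP signal compared with cytokine alone wells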
[8] = NIH3T3 cell viability loss – ATP luminescence, mouse fibroblasts, counter-screen, dose response (AID 2010); type: functional, cell-based;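 further: cells exposed to compound for about 90 hours before reading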
[9] = HEK-293T viability loss after treatment – luminescence, T-cell screen hits, cytotoxicity control for TCR NF-kB inhibitor project, dose response (AID 489026); type: functional, cell-based;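 further: cells exposed to compound about 14 hours before the viability readout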
[10] = reduction of Shn3 3'UTR-driven luciferase in osteoblasts – cell-based, Clone20 osteoblasts, firefly luciferase, cherry-picked, dose response (AID 624132); type: functional;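 further: firefly luciferase luminescence from reporter carrying the Shn3 3'UTR in osteoblasts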
[11] = loss of viability in HepG2 cells – cell-based, CellTiter-Glo, cherry-picked, cytotoxicity control for Shn3 inhibitor project, dose response (AID 624134); type: functional
[12] = Trypanosoma cruzi growth suppression in host cells – NIH3T3 host cells, beta-gal luminescence, confirmation (AID 2044); type: functional, cell-based;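 further: intracellular parasites grown in NIH/3T3 mouse fibroblasts as host cells; luminescent beta-galactosidase reporter signal from transgenic T. cruzi replicating inside host cells; inhibitors lower the luminescence signal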
[13] = non-specific 3'UTR reporter inhibition in Clone20-Shn3RL – cell-based, Renilla luciferase, cherry-picked, counter-screen for Shn3 inhibitor project, dose response (AID 624133); type: functional
[14] = general mammalian cell viability loss – inhibitor set, cherry-pick, set 2, cytotoxicity control for miR-122 modulator project, dose response (AID 720697); type: functional, cell-based
[15] = activation of miR-122 Renilla sensor silencing – cell-based, Huh7 psiCHECK-miR122, Renilla luciferase, cherry-picked, dose response (AID 651956); type: functional;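 further: huh7 hepatoma cells stably carrying a psiCHECK-2 miR-122 sensor plasmid; renilla luciferase signal reporting endogenous miR-122 activity after 48 h compound exposure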

T1 sequence (P65502 whole entry): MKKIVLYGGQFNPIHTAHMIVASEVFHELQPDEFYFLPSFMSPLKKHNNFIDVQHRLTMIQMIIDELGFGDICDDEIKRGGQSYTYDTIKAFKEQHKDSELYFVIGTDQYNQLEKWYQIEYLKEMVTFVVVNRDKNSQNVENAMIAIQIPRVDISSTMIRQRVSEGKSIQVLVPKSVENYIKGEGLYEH
72 kDa type IV collagenase, sequence (P08253 whole entry): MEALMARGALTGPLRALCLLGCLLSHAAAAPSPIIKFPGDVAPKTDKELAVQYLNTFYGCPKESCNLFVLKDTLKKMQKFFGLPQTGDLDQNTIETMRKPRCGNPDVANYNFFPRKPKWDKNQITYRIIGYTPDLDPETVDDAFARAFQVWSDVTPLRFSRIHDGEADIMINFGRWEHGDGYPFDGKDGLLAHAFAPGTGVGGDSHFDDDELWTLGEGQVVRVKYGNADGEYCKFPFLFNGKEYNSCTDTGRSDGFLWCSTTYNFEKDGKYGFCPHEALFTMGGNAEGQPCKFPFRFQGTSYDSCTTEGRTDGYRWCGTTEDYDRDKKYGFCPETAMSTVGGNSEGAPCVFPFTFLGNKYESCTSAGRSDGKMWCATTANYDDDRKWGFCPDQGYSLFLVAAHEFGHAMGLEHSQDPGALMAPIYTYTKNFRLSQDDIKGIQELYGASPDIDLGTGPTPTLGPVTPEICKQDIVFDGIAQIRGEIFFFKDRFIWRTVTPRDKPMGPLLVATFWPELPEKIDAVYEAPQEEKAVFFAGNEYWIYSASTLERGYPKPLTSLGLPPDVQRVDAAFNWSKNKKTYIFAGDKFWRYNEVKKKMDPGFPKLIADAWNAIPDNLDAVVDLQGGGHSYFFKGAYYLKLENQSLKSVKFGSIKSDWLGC
26S proteasome non-ATPase regulatory subunit 14, sequence (O00487 whole entry): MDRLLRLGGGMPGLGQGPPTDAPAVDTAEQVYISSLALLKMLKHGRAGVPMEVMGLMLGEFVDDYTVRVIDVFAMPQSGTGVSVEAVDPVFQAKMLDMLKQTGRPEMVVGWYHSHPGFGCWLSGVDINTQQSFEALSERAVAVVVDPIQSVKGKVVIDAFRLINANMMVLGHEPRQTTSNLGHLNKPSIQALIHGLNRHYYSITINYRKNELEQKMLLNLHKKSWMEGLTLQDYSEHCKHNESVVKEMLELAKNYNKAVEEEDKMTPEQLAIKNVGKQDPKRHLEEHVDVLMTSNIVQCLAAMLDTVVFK
Kallikrein-7, sequence (P49862 whole entry): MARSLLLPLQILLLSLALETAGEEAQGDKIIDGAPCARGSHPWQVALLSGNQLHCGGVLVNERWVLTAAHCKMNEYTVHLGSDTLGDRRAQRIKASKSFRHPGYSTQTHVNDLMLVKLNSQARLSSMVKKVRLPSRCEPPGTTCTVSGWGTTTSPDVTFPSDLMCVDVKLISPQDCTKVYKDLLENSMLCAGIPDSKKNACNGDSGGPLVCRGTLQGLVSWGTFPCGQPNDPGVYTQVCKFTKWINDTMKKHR

With `CCCCC1=CC2=CC(=O)C(C)(OC(=O)CC)C(=O)C2=CO1` (stereo not drawn) the IC50 [1] was 9.32 µM (active), the IC50 [2] was 24 µM (active) and the EC50 [3] was 21.6 µM (active). For the same compound, the EC50 [4] was 27.8 µM (active).

In the case of `Cn1c2ccccc2c2cc(C(=O)OCC(=O)N3CC(=O)Nc4ccccc43)sc21`, the IC50 [5] is reported as 13.9 µM (active), the IC50 [6] is reported as > 100 µM (inactive) and the IC50 (Prothrombin) is reported as 32.4 µM (active). The IC50 (Protein skinhead-1) was > 100 µM (inactive).

With `N#C/C(=C/c1ccc(-c2ccc(S(N)(=O)=O)cc2)o1)C(=O)Nc1ccccc1` the EC50 (Kallikrein-7) was 9.54 µM (active).

With `COc1ccc(-c2csc(NC(=O)C3CCN(c4ncnc5sc(C)c(C)c45)CC3)n2)cc1OC` the IC50 [7] was 3.82 µM (active), the AC50 (INS1) was 3.6 µM (active) and the EC50 [8] was > 60 µM (not active). The IC50 [9] was > 80 µM (inactive), the AC50 [10] was 1.42 µM (active) and the AC50 [11] was 1.86 µM (active). For the same compound, the EC50 [12] was 1.37 µM (active) and the AC50 [13] was 0.857 µM (active).

For `CCOc1ccc2nc(NS(=O)(=O)c3cccs3)sc2c1`, the AC50 [14] was 1.99 µM (active) and the AC50 [15] was 6.98 µM (active).

In the case of `COC(=O)CCCC1=CC2=CC(=O)C(C)(OC(=O)CCc3ccccc3)C(=O)C2=CO1` (stereo not drawn), the IC50 [1] is reported as 5.76 µM (active), the IC50 [2] is reported as 14.2 µM (active) and the EC50 [3] is reported as 26.7 µM (active). For the same compound, the EC50 [4] was 30.9 µM (active).
